For one test, the system named is MCF7. Briefly: Cytotoxicity against human MCF7 cells after 48 hrs by MTT assay. In kind it is functional, cell-based. The note with it: MCF7, 48 h.
Test [1] has as its system HeLa. Briefly: Cytotoxicity against human HeLa cells after 48 hrs by MTT assay. It counts as functional, cell-based.
Test [2] deals with HeLa. Put plainly: Ratio of ellipticine IC50 to compound IC50 for human HeLa cells. It counts as functional.

Molecules are shown by their SMILES. Where only a bound is given, the exact number is not on record here.

Take `Cc1ccc2[nH]c3c(c2c1)CC/C(=C\c1cc2c(ccc4ccccc42)nc1Cl)C3=O`: the IC50 in the test on MCF7 is above 100 µM; in the test with HeLa [1] it was 35.8 µM.
For `O=C1/C(=C/c2cc3c(ccc4ccccc43)nc2Cl)CCc2c1[nH]c1ccc(Cl)cc21`, the IC50 was 75.5 µM in the test on MCF7 and 32.5 µM in the test on HeLa [1].
Take `O=C1/C(=C/c2cc3c(ccc4ccccc43)nc2Cl)CCc2c1[nH]c1ccccc21`: the IC50 was above 100 µM in the test with MCF7 and 42.3 µM with HeLa [1].
For `Cc1ccc2[nH]c3c(c2c1)CCc1c-3noc1-c1cc2c(ccc3ccccc32)nc1Cl`, the IC50 turned out to be 67.9 µM in the test on MCF7 and 26.1 µM with HeLa [1].
Take `Clc1ccc2[nH]c3c(c2c1)CCc1c-3noc1-c1cc2c(ccc3ccccc32)nc1Cl`: the IC50 in the test on MCF7 came to 55.1 µM; with HeLa [1], 22.3 µM.
Take `Clc1nc2ccc3ccccc3c2cc1-c1onc2c1CCc1c-2[nH]c2ccccc12`: the figures for the IC50 with MCF7 and in the test on HeLa [1] were 70.5 µM and 27.5 µM, respectively.
On to `CCOc1nc2c(c(-c3cc4c(ccc5ccccc54)nc3Cl)c1C#N)CCc1c-2[nH]c2ccc(C)cc12`, for which the IC50 came out at 37.4 µM in the test with MCF7 and 9.63 µM in the test on HeLa [1].
Take `CCOc1nc2c(c(-c3cc4c(ccc5ccccc54)nc3Cl)c1C#N)CCc1c-2[nH]c2ccc(Cl)cc12`: the IC50 with MCF7 came out at 34.5 µM; with HeLa [1], 8.11 µM. Besides, the “Ratio IC50” value in the test on HeLa [2] was determined as 1.21.
Turning to `CCOc1nc2c(c(-c3cc4c(ccc5ccccc54)nc3Cl)c1C#N)CCc1c-2[nH]c2ccccc12`, the results for the IC50 with MCF7 and in the test on HeLa [1] were 46.6 µM and 12.3 µM, respectively.
Consider `Cc1ccc2[nH]c3c(ccc4c(-c5cc6c(ccc7ccccc76)nc5Cl)nc(N)nc43)c2c1`, for which the IC50 is 39.4 µM with MCF7 and 14.8 µM in the test on HeLa [1].
On to `Nc1nc(-c2cc3c(ccc4ccccc43)nc2Cl)c2ccc3c4cc(Cl)ccc4[nH]c3c2n1`, for which the IC50 stood at 32.6 µM in the test on MCF7 and 12.4 µM in the test with HeLa [1].
Regarding `Nc1nc(-c2cc3c(ccc4ccccc43)nc2Cl)c2ccc3c4ccccc4[nH]c3c2n1`, the IC50 with MCF7 is 42.9 µM; in the test with HeLa [1] it was 18.6 µM.
For `Cc1c2ccncc2c(C)c2c1[nH]c1ccccc12` [ELLIPTECINE] the same measures were 16.7 µM and 9.81 µM.
